Laboratory results reported in the supplement of paper PMC10307832.

Assays:
Experiment in all cases: relative viability (nuclei count vs DMSO), 5 days (fraction); higher = more cells survive
[1] = compound: C1=CC2=C(C=C(C(=C2N=C1)O)N=NC3=CC4=C(C=C3)C=C(C=C4)S(=O)(=O)O)S(=O)(=O)O + C[C@@H](Oc1cc(-c2cnn(C3CCNCC3)c2)cnc1N)c1c(Cl)ccc(F)c1Cl [Crizotinib] (partner 1 µM)
Summary of the method: (§1)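 Relative viability divides the nuclei count in treated wells by that in vehicle wells. Lung cancer cell lines were seeded in 1536-well plates, dosed by pin tool the next day, and fixed and stained after 5 days in one step with final 0.05% Triton X-100, 1% formaldehyde and 1 ug/ml Hoechst. Dosing was a single drug or a fixed anchor-drug dose plus five library-drug doses (not always all listed) in √10 steps, and values are medians of duplicate plates imaged at 4×.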

[2] = compound: O=C(NC1CCNCC1)c1n[nH]cc1NC(=O)c1c(Cl)cccc1Cl [AT-7519] + CC(=O)c1c(C)c2cnc(Nc3ccc(N4CCNCC4)cn3)nc2n(C2CCCC2)c1=O [Palbociclib] (partner 0.5 µM)
Summary of the method: as §1

[3] = compound: C1=CC2=C(C=C(C(=C2N=C1)O)N=NC3=CC4=C(C=C3)C=C(C=C4)S(=O)(=O)O)S(=O)(=O)O + C[C@]1(O)C[C@@H](c2nc(-c3ccc4ccc(-c5ccccc5)nc4c3)c3c(N)nccn32)C1 [Linsitinib] (partner 1 µM)
Summary of the method: as §1

[4] = compound: O=C(NC1CCNCC1)c1n[nH]cc1NC(=O)c1c(Cl)cccc1Cl [AT-7519] + Nc1ncn([C@H]2C[C@H](O)[C@@H](CO)O2)c(=O)n1 [Decitabine] (partner 2 µM)
Summary of the method: as §1

In the case of SW 1573, the relative viability ([1]; first compound 0.08 µM) is reported as 0.842, the relative viability ([1]; first compound 0.253 µM) is reported as 0.78 and the relative viability ([1]; first compound 0.8 µM) is reported as 0.836. The relative viability ([1]; first compound 2.53 µM) was 0.85, the relative viability ([1]; first compound 8 µM) was 0.742 and the relative viability ([2]; first compound 0.01 µM) was 0.38. For the same cell line, the relative viability ([2]; first compound 0.03162 µM) was 0.368, the relative viability ([2]; first compound 0.3162 µM) was 0.212 and the relative viability ([2]; first compound 1 µM) was 0.109. It also gave a relative viability ([3]; first compound 0.08 µM) of 0.779, a relative viability ([3]; first compound 0.253 µM) of 0.734 and a relative viability ([3]; first compound 0.8 µM) of 0.816. It also gave a relative viability ([3]; first compound 2.53 µM) of 0.875, a relative viability ([3]; first compound 8 µM) of 0.75 and a relative viability ([4]; first compound 0.01 µM) of 0.471. The relative viability ([4]; first compound 0.03162 µM) was 0.424, the relative viability ([4]; first compound 0.3162 µM) was 0.34 and the relative viability ([4]; first compound 1 µM) was 0.137.
